What is called melting point is the temperature, or range, at which the solid turns liquid.

Molecules are shown by their SMILES.

In turn, `COc1ccc(CCCN2C=CC=C3C2=Nc2ccc(Cl)cc2S(=O)(=O)N3C)cc1` registered a melting point of 62 to 65 °C. Then `Cc1coc(N(CCCC(=O)O)C(=O)C(C)C)n1`, with 81 to 82 °C; and `CC(=O)C(=NNc1ccccc1)C(N)=O`, with 146 to 147 °C.

`O=C(Nc1ccccc1)NC1C(=O)N(CC2C3CC4CC(C3)CC2C4)c2ccccc2N(c2ccccc2)C1=O` (configuration not stated) showed a melting point of 192 to 193 °C. Then `CC(=O)Nc1ccc2cccc(Oc3cc(-c4ccc(C(F)(F)F)cc4)ncn3)c2n1`, with 204 to 206 °C.

The molecule `Cc1cncnc1Nc1ccc(C(=O)CC2CCN(Cc3ccccc3)CC2)cc1` came in with a melting point of 211 to 213 °C. Then `NC(=O)CCCSc1cccc(NC(N)=NCC(F)(F)F)n1`, with 138 to 141 °C; and `N#Cc1cc2c(c(C(=O)O)c1)NCCCC2`, with 175 °C; and `CCc1nc(-c2cccc(C)c2)c(-c2ccnc(NC(=O)C3CCCCC3)c2)s1`, with 98 to 100 °C. Then `C[C@@H]1c2cc(F)ccc2-c2ccc(F)cc2N1S(=O)(=O)c1ccc(O)cc1O`, with 153 to 156 °C; and `Cc1cc(C(O)(C(F)(F)F)C(F)(F)F)cc(C)c1NCCC(=O)O`, with 175 to 176 °C; and `COC(=O)CCC(=O)c1ccc(O)cc1`, with 115 to 116 °C.

`CCOC(=O)C(Cl)=Cc1cc(NC(=O)C2=C(C(=O)N(C)C)CCCC2)ccc1Cl`: the melting point lay in the range of 161 to 164 °C.

Molecule `Cc1ccccc1-c1cnc(Nc2ccccn2)s1` returned a melting point of 155 to 160 °C.

On to `CC(=O)Nc1ccc(C=C2C(=S)c3cc(C)ccc3OC2c2ccccc2)cc1` (configuration not stated), for which the melting point lay in the range of 197 to 198 °C. Consider `CC(C)(C)OC(=O)n1ncc2ccc(NC(=O)c3ccccc3O)cc21`, for which the melting point fell in the range of 155 to 156 °C. Then `CC(=O)c1ccc(O)c(-n2nc3ccccc3n2)c1`, with 147 °C; and `Cc1c2n(c3ccc(Br)cc13)CCC(Br)C2=O` (configuration not stated), with 156 °C; and `S=C(NCCc1ccccn1)NN=C(CCCCl)c1ccccc1`, with 126 to 129 °C. `CC(=O)N(CCCc1ccccc1)[C@H]1CC[C@H](c2ccc(O)cc2)CC1` registered a melting point of 175 to 180 °C. Under `CC(=O)Oc1ccccc1C(=O)N1CCN(C(=O)c2ccccc2OC(C)=O)CC1` stands 175 to 177 °C; under `CC(C)(C)C(=O)OC1C(c2ccccc2)=C(c2ccc(S(C)(=O)=O)cc2)C1(C)C` (configuration not stated), 66 to 67 °C; under `Cc1[nH]nc(C(F)(F)F)c1-c1cncc(OC2SCC(O)C(O)C2O)c1` (configuration not stated), 234 °C. Take `O=Cc1ccc(Cc2ccccc2)cc1`: the melting point was 142 to 144 °C.

Regarding `Cc1ccc(CC2CCN(C(=O)CNc3ccc(NS(C)(=O)=O)cc3)CC2)cc1`, the melting point is 133 to 135 °C. Then `CSc1nccn1-c1cccc(C(=O)CC(=O)Nc2cc(-c3ccccc3F)c(OC(C)(C)C)cc2NC(=O)OC(C)(C)C)c1`, with 59 to 62 °C. Then `CCCCCC(=O)OCc1nccc2[nH]c(=O)ccc12`, with 158 to 159 °C. On to `N#Cc1c(N2CCc3ccccc3CC2)nc2[nH]ccn2c1=O`, for which the melting point was more than 200 °C. Under `CCCNC(=O)C(C)Cc1ccc2c(c1)c(Cc1ccc(C(=O)NS(=O)(=O)c3ccccc3C)cc1OC)cn2C(C)C` (configuration not stated) stands 182 to 184 °C. Then `Cc1ccc(C(C)(C)C)c(O)c1-c1nc2cc(C#N)ccc2[nH]1`, with 212 to 215 °C.

On to `CCn1cc(C(=O)O)c(=O)c2cc(F)c(N3CC4CCCC3CN4)c(F)c21` (configuration not stated), for which the melting point lay in the range of 245 to 250 °C. Then `CNC(=O)c1cn2c(C)c(C)nc2c(O)c1CC[C@@H](O)c1ccccc1`, with 250 to 252 °C; and `CN(C)c1ccc(C2(Oc3ccccc3)OC(=O)c3ccc(N(C)C)cc32)cc1` (configuration not stated), with 158 to 159 °C; and `OCC1Cc2c(c(Br)cc3c(-c4ccccc4)noc23)O1` (configuration not stated), with 164 to 166 °C. `Oc1ccc(/C(=C(\c2ccccc2)C(F)(F)F)c2ccccc2)cc1`: the melting point lay in the range of 113 to 120 °C. Molecule `CC(=O)Nc1ccccc1CS(=O)c1nccn1Cc1ccccn1` (configuration not stated) registered a melting point of 146 to 148 °C. Under `Cc1cccc(C)c1NC(=O)c1ccc(Cl)nc1` stands 165 to 166 °C.

The molecule `Fc1ccc(OCCCCCCN2CCN(c3nccs3)CC2)cc1` came in with a melting point of 58 to 60 °C. `Cc1ccc2c(c1)C(C)(O)c1ccccc1C=C2` (configuration not stated) displayed a melting point of 102 to 103 °C.

Regarding `CCOC(=O)c1cnoc1-c1ccc(Cl)s1`, the melting point was in the range of 74 to 75 °C. Turning to `NC(=O)CNC(=O)c1cccc(-c2cccc3cc(Cc4cc(F)cc(Cl)c4)sc23)c1F`, the melting point lay in the range of 46 to 47 °C. Turning to `O=C1Nc2ccc(Cl)cc2C(c2ccc3[nH]c(=O)n(CCCO)c3c2)=N[C@H]1Cc1ccccc1Cl`, the melting point came out at 210 °C. Then `Fc1cccc(F)c1C1=NC(c2ccc(-c3ccc(SC(F)F)cc3)cc2)CO1` (configuration not stated), with 75 to 77 °C; and `O=C1c2cc3ccccc3cc2C(=O)c2c(Oc3ccccc3)cccc21`, with 195 to 200 °C; and `CCCCCS(=O)(=O)NC(=O)/C=C/c1ccc(OCC2CCCO2)cc1Oc1ncc(C(F)(F)F)cc1Cl` (configuration not stated), with 126 to 128 °C.

`O=C(CCl)c1ccc(CCO)cc1` registered a melting point of 41 to 45 °C. Then `O=C(COc1cccnc1)NCCCCC1CCN(C(c2ccccc2)c2ccccc2)CC1`, with 103 to 105 °C.

The molecule `CN1CCN(CCOc2ccc3nc(C#N)nc(NC4CCCC4)c3c2)CC1` had a melting point of 110 to 112 °C. On to `OCCN=C1c2ccccc2CCc2ccccc21`, for which the melting point is 93 to 94 °C. Then `Nc1ccccc1Sc1c(N)[nH]c(=O)[nH]c1=O`, with more than 310 °C.

`CCCCCCCCCCC[C@H](CC(=O)N[C@@H](CO)C(=O)OCc1ccccc1)OC(=O)CCCCCCCCCC` returned a melting point of 53 to 54 °C. Under `CSc1ccc2c(c1)C(SCCBr)Cc1ccccc1O2` (configuration not stated) stands 64 to 66 °C. Then `CC(C)(O)C1CCN(Cc2ccccc2)CC1`, with 66 °C. Under `ON=C(c1ccccc1F)c1ccc(O)c(Cl)c1Cl` stands 168 to 175 °C. `COc1ccc(C2=NN(c3ccc(C(=O)O)cc3)C(=O)[C@H]3CC=CC[C@@H]23)cc1OC` (relative stereo) gave a melting point of 198 to 199 °C.

Turning to `CC1(C)CC2(CCNCC2)C(=O)O1`, the melting point is more than 280 °C.

Molecule `CN(C(=O)Cc1ccc(Cl)c(Cl)c1)[C@@H]1Cc2ccccc2C[C@H]1N1CCCC1` (relative stereo) came in with a melting point of 161 to 164 °C. Then `CCC(=O)NN=C(C)c1cnccn1`, with 181 °C; and `O=S1(=O)N=CN(C2CC2)c2c(F)cccc21`, with 151 to 152 °C; and `CN(C)C=CC(=O)c1c(-c2ccc(C(C)(C)NC(=O)OC(C)(C)C)cc2)ccc2nn(C3CCCCO3)cc12` (configuration not stated), with 191 to 194 °C. Under `O=Cn1cc(Cl)c(-c2ccccc2C(F)(F)F)c1` stands 75 to 78 °C. Then `CC(c1ccccc1)C(CS)C(=O)NCC(=O)O` (configuration not stated), with 129 °C; and `C#CCNc1onc(-c2ccccc2)c1Cl`, with 83 to 84 °C; and `CCOC(=O)c1ccc(OCCC2CN(c3nnc(Br)s3)CCO2)cc1` (configuration not stated), with 131 °C. `Cc1cc(-c2ccc(-c3ccco3)cc2)cc(S(N)(=O)=O)c1-n1ccc(C(F)(F)F)n1`: the melting point is 87 to 89 °C. `Cn1nccc1CCS(=O)Cc1ccc(OCc2coc(/C=C/c3ccc(OC(F)(F)F)cc3)n2)cc1` (configuration not stated) showed a melting point of 138 to 139 °C.

As for `CC(C)N1NN=C(c2cn(C)c3ccccc3c2=O)N1`, the melting point is 134 to 137 °C.

In turn, `O=C1c2ccccc2C(O)N1CCCN1CCN(c2ccc(O)cc2)CC1` (configuration not stated) registered a melting point of 190 °C. Then `OC(C=Cc1ccccc1)Cn1ccnc1` (configuration not stated), with 108 to 110 °C; and `CCc1ccc(C(O)CNC(=C[N+](=O)[O-])NCCSCc2cc(C)c(CN(C)C)s2)cc1` (configuration not stated), with 112 to 115 °C; and `CCCN(CCC)CC1CCCCN1CCNC(=O)N1c2ccccc2C(=O)Nc2cccnc21` (configuration not stated), with 165 °C. Under `OC12N=C(CSCc3ccccc3)SC1Cc1cc(Cl)ccc12` (configuration not stated) stands 102 to 104 °C; under `O=C(C=Cc1cc(Br)c(O)c(Br)c1)N1CCc2c([nH]c3ccccc23)C1c1ccc2c(c1)OCO2` (configuration not stated), 148 to 150 °C; under `CCCCc1nc2cc(Br)cc(C(=O)O)c2n1Cc1ccccc1Cl`, 254 to 255 °C.

Take `CCCCCCC(=N)NC(=S)Nc1ccc(OC(F)(F)F)cc1`: the melting point lay within 90 to 91 °C. In the case of `NC(=O)[C@@H]1C[C@H](S)CN1C(=O)OCc1ccc([N+](=O)[O-])cc1`, the melting point was 158 to 162 °C.

Consider `OC[C@@H]1CCCN1Cc1cc2cc3c(cc2c2cc(OCc4ccccc4)ccc12)OCO3`, for which the melting point lay in the range of 122 to 124 °C. Consider `CCCCc1nn(-c2cccc([N+](=O)[O-])c2)c(=O)n1Cc1ccc(-c2ccccc2S(=O)(=O)NC(C)(C)C)cc1`, for which the melting point lay in the range of 164 to 165 °C.

`CCC(=S)NC[C@H]1CN(c2ccc(N3CCN(C(=O)COc4ccccc4)CC3)c(F)c2)C(=O)O1` returned a melting point of 171 to 172 °C.

As to `CNC(=O)N1N=C(c2ccc(N)cc2)c2cc3c(cc2CC1C)OCO3` (configuration not stated), the melting point was 133 to 135 °C. In turn, `Clc1ccc(C=C(OC2CCCCC2)n2cncn2)c(Cl)c1` came in with a melting point of 84 °C. Consider `O=[N+]([O-])c1ccc(CN2CCN(CC(O)COc3cccc4[nH]c5ccccc5c34)CC2)o1` (configuration not stated), for which the melting point is 54 to 59 °C. Molecule `[N-]=[N+]=NCC(=O)N1CC(c2ccccc2)c2ccccc21` (configuration not stated) came in with a melting point of 72 to 73 °C. Consider `Cc1nc2cccnc2n(-c2ccc(Cl)cc2)c1=O`, for which the melting point lay within 245 to 246 °C.

With `N#CN=C(Nc1cccc(-c2cccc(S(=O)(=O)NC(CC(=O)O)c3ccccc3)c2)c1)NC1CC1` (configuration not stated), the melting point stood at 120 °C. Then `C#CCN1C(=O)CN(C)c2ccc(-c3ncc(C(F)(F)F)cc3Cl)cc21`, with 128 to 129 °C; and `CN1C(=O)C(NC(=O)Nc2cccc(C#N)c2)C(=O)N(c2ccccc2)c2ccccc21` (configuration not stated), with more than 250 °C.

The values are drawn from a melting point compilation (Tetko et al.; mined from patent text by program, amines drawn as free bases though some values may be those of a salt).
